Test system: SEM cells
Experiment: cell viability relative to DMSO control; higher = less cytotoxic
Conditions: 48 h
In short: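 Library compounds in DMSO were pin-dosed into 1536-well plates (5 μl) holding NOMO1 or SEM (500 cells/well) or P12-Ichikawa (1000 cells/well) leukemia cells, across an 11-point threefold series of 47 μM to 0.79 nM. Each cell line had been adapted for at least four passages in each medium. CellTiter-Glo One luminescence was read after 48 h at 37°C. Viability is the per-plate percentage relative to DMSO wells, with cell-free wells as background.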

[1] = RPMI 5 mM glucose + 10% FBS, 0.000781 µM
[2] = RPMI 5 mM glucose + 10% FBS, 0.00234 µM
[3] = RPMI 5 mM glucose + 10% FBS, 0.00702 µM
[4] = RPMI 5 mM glucose + 10% FBS, 0.0211 µM
[5] = RPMI 5 mM glucose + 10% FBS, 0.0632 µM
[6] = RPMI 5 mM glucose + 10% FBS, 0.19 µM
[7] = RPMI 5 mM glucose + 10% FBS, 0.569 µM
[8] = RPMI 5 mM glucose + 10% FBS, 1.71 µM
[9] = RPMI 5 mM glucose + 10% FBS, 5.12 µM
[10] = RPMI 5 mM glucose + 10% FBS, 15.4 µM
[11] = RPMI 5 mM glucose + 10% FBS, 46.1 µM
[12] = HPLM + 10% dialyzed FBS, 0.000781 µM
[13] = HPLM + 10% dialyzed FBS, 0.00234 µM
[14] = HPLM + 10% dialyzed FBS, 0.00702 µM
[15] = HPLM + 10% dialyzed FBS, 0.0211 µM
[16] = HPLM + 10% dialyzed FBS, 0.0632 µM
[17] = HPLM + 10% dialyzed FBS, 0.19 µM
[18] = HPLM + 10% dialyzed FBS, 0.569 µM
[19] = HPLM + 10% dialyzed FBS, 1.71 µM
[20] = HPLM + 10% dialyzed FBS, 5.12 µM
[21] = HPLM + 10% dialyzed FBS, 15.4 µM
[22] = HPLM + 10% dialyzed FBS, 46.1 µM
[23] = RPMI 5 mM glucose + 10% dialyzed FBS, 0.000781 µM
[24] = RPMI 5 mM glucose + 10% dialyzed FBS, 0.00234 µM
[25] = RPMI 5 mM glucose + 10% dialyzed FBS, 0.00702 µM
[26] = RPMI 5 mM glucose + 10% dialyzed FBS, 0.0211 µM
[27] = RPMI 5 mM glucose + 10% dialyzed FBS, 0.0632 µM
[28] = RPMI 5 mM glucose + 10% dialyzed FBS, 0.19 µM
[29] = RPMI 5 mM glucose + 10% dialyzed FBS, 0.569 µM
[30] = RPMI 5 mM glucose + 10% dialyzed FBS, 1.71 µM
[31] = RPMI 5 mM glucose + 10% dialyzed FBS, 5.12 µM
[32] = RPMI 5 mM glucose + 10% dialyzed FBS, 15.4 µM
[33] = RPMI 5 mM glucose + 10% dialyzed FBS, 46.1 µM

Row | SMILES | cell viability [1] [%] | cell viability [2] [%] | cell viability [3] [%] | cell viability [4] [%] | cell viability [5] [%] | cell viability [6] [%] | cell viability [7] [%] | cell viability [8] [%] | cell viability [9] [%] | cell viability [10] [%] | cell viability [11] [%] | cell viability [12] [%] | cell viability [13] [%] | cell viability [14] [%] | cell viability [15] [%] | cell viability [16] [%] | cell viability [17] [%] | cell viability [18] [%] | cell viability [19] [%] | cell viability [20] [%] | cell viability [21] [%] | cell viability [22] [%] | cell viability [23] [%] | cell viability [24] [%] | cell viability [25] [%] | cell viability [26] [%] | cell viability [27] [%] | cell viability [28] [%] | cell viability [29] [%] | cell viability [30] [%] | cell viability [31] [%] | cell viability [32] [%] | cell viability [33] [%]
1 | COc1ccc(-n2c(C)c([N+](=O)[O-])c3ccc(O)cc32)cc1 | 102 | 103 | 111 | 107 | 120 | 109 | 108 | 122 | 127 | 121 | 98.5 |  |  |  |  |  |  |  |  |  |  |  |  |  |  |  |  |  |  |  |  |  | 
2 | O=C(CCCN1CCC(O)(c2ccc(Cl)cc2)CC1)c1ccc(F)cc1 | 100 | 109 | 82.6 | 101 | 113 | 117 | 20.9 | 47.2 | 117 | 110 | 89.6 | 86.5 | 93.9 | 75.6 | 106 | 113 | 94.8 | 25.8 | 43.8 | 90.2 | 102 | 98.3 | 101 | 106 | 95.5 | 110 | 123 | 120 | 30.6 | 43 | 122 | 122 | 101
3 | CC(C)[C@H]1C(=O)N[C@H](CO)Cc2c[nH]c3cccc(c23)N1C | 83 | 74 | 91.9 | 114 | 99.1 | 78.3 | 92.3 | 74.2 | 47.9 | 50.2 | 61.3 | 82.3 | 78.3 | 90.7 | 105 | 114 | 75.6 | 85.6 | 78.9 | 57.9 | 64.7 | 76.6 | 89.7 | 90.8 | 99.7 | 114 | 102 | 80.6 | 104 | 104 | 67.1 | 74.1 | 88.4
4 | C#CCC(Cc1cnc2nc(N)nc(N)c2n1)c1ccc(C(=O)N[C@@H](CCC(=O)O)C(=O)O)cc1 (stereo partly drawn) | 113 | 122 | 120 | 118 | 90.6 | 73.3 | 74.1 | 71.9 | 66.7 | 68.1 | 68 | 110 | 113 | 114 | 119 | 47 | 48 | 39.2 | 36.3 | 31.9 | 38.1 | 35.1 | 105 | 114 | 110 | 107 | 27.4 | 23.5 | 24.3 | 23 | 20.3 | 22.9 | 22.3
5 | Cn1cnc(N)c2ncnc1-2 | 90.9 | 99 | 92.9 | 87.1 | 87.8 | 99.5 | 87.2 | 63.6 | 14.7 | 4.31 | 3.65 | 80.5 | 96.4 | 111 | 103 | 109 | 88.9 | 112 | 80.3 | 32 | 5 | 4.54 | 108 | 109 | 115 | 84.9 | 112 | 98.6 | 118 | 82.6 | 24.8 | 5.27 | 4.09
6 | Nc1ncnc2nc(-c3ccc(N4CCOCC4)nc3)cc(-c3cccc(Br)c3)c12 | 93.2 | 124 | 77.9 | 111 | 114 | 110 | 104 | 105 | 114 | 106 | 83 | 109 | 107 | 115 | 118 | 114 | 122 | 117 | 115 | 109 | 110 | 96.5 | 125 | 124 | 102 | 133 | 125 | 127 | 132 | 126 | 133 | 123 | 93
7 | CC(O)(C[S+](=O)([O-])c1ccc(F)cc1)C(=O)Nc1ccc(C#N)c(C(F)(F)F)c1 (stereo not drawn) | 84.9 | 83.6 | 98 | 87 | 88.7 | 103 | 96.3 | 96.5 | 91.8 | 76.8 | 62.9 | 86.8 | 96.4 | 91 | 80.3 | 85.2 | 96.2 | 96.2 | 93.5 | 97.4 | 83.2 | 73.9 | 87.2 | 84.4 | 98.1 | 94.8 | 80 | 102 | 86.8 | 102 | 99.1 | 72.3 | 55
8 | COC(=O)CCC1=C(C)C2=CC3=NC(=CC4=C(C)C(=C([NH]4)C=C\5N=C(C=C1[NH]2)\C(=C5C)CCC(O)=O)C=C)\C6=C\C=C(/[C@@H](C(=O)OC)[C@@]36C)C(=O)OC | 89.4 | 92 | 91.8 | 94.9 | 95.2 | 98.1 | 87.7 | 98.9 | 95.4 | 89.7 | 75.4 | 88.5 | 83.3 | 89.7 | 85.4 | 94.2 | 94.4 | 98 | 95.7 | 91.7 | 82.7 | 77.4 | 86.6 | 90.7 | 101 | 108 | 105 | 122 | 104 | 108 | 105 | 91.3 | 80.4
9 | c1coc(CNc2ncnc3nc[nH]c23)c1 | 110 | 120 | 116 | 121 | 124 | 110 | 119 | 120 | 143 | 119 | 105 | 112 | 101 | 112 | 103 | 116 | 118 | 123 | 110 | 130 | 127 | 103 | 105 | 115 | 106 | 114 | 111 | 114 | 97.4 | 109 | 115 | 119 | 96.1
10 | O=C(O)c1cccnc1 |  |  |  |  |  |  |  |  |  |  |  | 111 | 117 | 109 | 118 | 105 | 106 | 98.2 | 37.5 | 14.4 | 9.12 | 6.43 |  |  |  |  |  |  |  |  |  |  | 
11 | O=c1oc2cc(O)ccc2s1 | 91.8 | 106 | 82.9 | 110 | 103 | 98.6 | 112 | 118 | 109 | 77.6 | 24.8 | 85.6 | 110 | 98.9 | 95.4 | 109 | 105 | 120 | 93.9 | 111 | 105 | 37.9 | 97.4 | 119 | 99.3 | 109 | 121 | 88.3 | 112 | 106 | 129 | 90.3 | 37.6
12 | CCC(=O)NC[C@H](Cc1ccc(OCCc2nc(-c3ccccc3)oc2C)cc1)N/C(C)=C\C(=O)c1ccc(C(F)(F)F)cc1 | 83.1 | 97.2 | 120 | 105 | 98 | 120 | 4.86 | 83.4 | 99.4 | 51.9 | 67.2 | 68.8 | 106 | 104 | 88.3 | 91 | 109 | 4.25 | 81.6 | 82.6 | 50.4 | 49.3 | 60.2 | 97.7 | 113 | 118 | 120 | 109 | 5.19 | 93 | 94.5 | 43.9 | 65.5
13 | OC[C@H]1OC(O)C[C@@H](O)[C@@H]1O (stereo partly drawn) | 95.6 | 26.8 | 118 | 116 | 114 | 115 | 118 | 125 | 109 | 136 | 127 | 83.6 | 32.6 | 104 | 99.5 | 92.4 | 96 | 92.8 | 101 | 101 | 97.8 | 97.9 | 97.6 | 37.5 | 116 | 104 | 118 | 113 | 120 | 120 | 109 | 116 | 119
14 | NCCOc1cc(C(=O)Nc2cc(OCCN)c3ccccc3n2)nc(C(=O)Nc2cc(OCCN)c3ccccc3n2)c1 | 23.9 | 19.8 | 23.7 | 21.1 | 22.1 | 23.6 | 23.2 | 19.3 | 27.5 | 32.6 | 61.1 | 47.6 | 56.1 | 36.1 | 23.8 | 19.4 | 22.9 | 22.8 | 21.5 | 22.2 | 31.1 | 46.3 | 67.3 | 58.4 | 42.6 | 25.6 | 22.9 | 20 | 22.9 | 25.4 | 21.7 | 38.2 | 59.5
15 | CC(C)(Sc1cc(C(C)(C)C)c(O)c(C(C)(C)C)c1)Sc1cc(C(C)(C)C)c(O)c(C(C)(C)C)c1 | 90 | 94.6 | 67 | 96.1 | 80.7 | 103 | 91.3 | 84.1 | 49.1 | 95.4 | 105 | 73.2 | 89.8 | 60 | 90.9 | 91.2 | 91.9 | 84.2 | 81.4 | 46.4 | 89.1 | 90 | 79 | 81.5 | 76.7 | 97.7 | 86.1 | 94.5 | 90.2 | 89.3 | 54.4 | 89.1 | 104
16 | Cc1cccc(-c2[nH]c(C(C)(C)C)nc2-c2ccc3nccnc3c2)n1 | 95.9 | 85.8 | 89.7 | 95.9 | 91.2 | 81.1 | 89 | 67.9 | 82 | 64.9 | 6.89 | 121 | 121 | 120 | 131 | 123 | 125 | 124 | 121 | 117 | 97.7 | 11.1 |  |  |  |  |  |  |  |  |  |  | 

Source: the supplement of paper PMC11451515
